In one experiment the test system is estrogen receptor. Conditions: literature, in words; cited from earlier work.
A further experiment deals with MCF-7 cells. The experiment can be described thus: Cell growth inhibiting activity (MTT, 0.1 nM estradiol, 7 days). It is filed as cell-based. The following applies: Homo sapiens, MCF7, 168 h, MCF-7, 0.1 nM estradiol. The method, then:
In this experiment, the cell growth inhibiting activity was determined by using the compounds of Examples 6, 7, 12 and 46 as the test compound and the known anti-estrogenic compound ZM189154 having the following structure (see, EP0124369 B1) as the control compound, according to the method described hereinafter. [drawing 72]
One day before drug administration, incubated MCF-7 cells were plated in 96-well plate in the concentration of 5×10^3 cells per well. After the 96-well plate was incubated for one day, 0.1 nM of estradiol and the test compound in the given concentration were added to each well. The plate was incubated for 7 days at 37° C. and then MTT solution (Sigma) was added to each well in the amount of 15 μl and allowed to react for 2 hours at 37° C. After the reaction is completed, the solubilizing/stopping solution (constitution: SDS, acetic acid, N,N-dimethylformamide) was added to each well in the amount of 100 μl. Then, the absorption for each well at 570 nm was measured by means of a plate reader. IC50 value for inhibiting cell growth of 50% was calculated from the results as measured and described in the following Table 1.

Experiment [1] concerns increase of uterine weight by estradiol in ovariectomized mice. Briefly: Anti-estrogenic activity, inhibition of uterine weight increase, subcutaneous administration. It is filed as in vivo, mice (ICR). The following applies: s.c.; for Inhibition (%) of increase of uterine weight: 30 μg/mouse, 3 days; for inhibition of increase of uterine weight compared to ZM189154: in words. The method, then: Anti-estrogenic activity of the test compound by subcutaneous administration was determined according to the method described hereinafter. In this experiment, the compounds of Examples 6, 7, 12 and 46 were used as the test compound and the known anti-estrogenic compound ZM189154 was used as the control compound as in Experiment 1.
In this experiment, the test compound or the control compound was dissolved in peanut oil (Sigma) and injected subcutaneously for 3 days, once a day. After 24 hours from the last injection, the test animal was sacrificed and uterus was removed and weighed.

For experiment [2] the test system is unchanged. Briefly: Anti-estrogenic activity, inhibition of uterine weight increase, oral administration. It is filed as in vivo, mice (ICR). Conditions: 10 mg/kg, p.o., 3 days. The method, then:
Oral anti-estrogenic activity of the test compound was determined according to the method described hereinafter. In this experiment, the compound of Example 7 was used as the test compound and the known anti-estrogenic compound ZM189154 was used as the control compound as in Experiment 2.
In this experiment, the test compound or the control compound was suspended in 5% arabic gum solution and orally administered for 3 days, once a day. After 24 hours from the last administration, the test animal was sacrificed and uterus was removed and weighed.

A further experiment relates to mouse femur. The experiment can be described thus: Effect on bone mineral density of mouse femur. It is filed as in vivo, BALB/c nude mouse (female). Conditions: for whole BMD / proximal BMD / distal BMD: mean ± SE, s.c. once a week, 6 weeks; for whole BMD: control 35.63 ± 0.97; for proximal BMD: control 35.95 ± 1.50; for distal BMD: control 37.80 ± 1.75. The method, then: The effect of the compound of the present invention on bone mineral density of mouse femur was determined according to the method described hereinafter. In this experiment, the compounds of Example 7 was used as the test compound and the known anti-estrogenic compound ZM189154 was used as the control compound as in Experiment 2.
MCF-7 cells (ATCC) as human breast cancer cell were transplanted subcutaneously into BALB/c nude mouse (female, 6 weeks) and then estradiol was percutaneously injected twice a week in an amount of 0.01 mg/mouse, for 3 weeks. Thereafter, estradiol was administered once a week in the same amount and the test compound or the control compound dissolved in 10% ethanol-90% peanut oil was administered. The control group received only vehicle. The test or control compound was administered subcutaneously in an amount of […], once a week. After the administration of the test compound for 6 weeks, left femur was excised and soft tissue was removed therefrom. Then the bone mineral density (BMD) was measured in a SPA mode by means of dual energy X-ray absorptiometry DCS-600 (Aloka). For interpretation, femur was divided into ten in the direction of long axis and the mean […] of 3, 4 and 3 fragments from proximal position were calculated. Each of the fragments was represented as proximal, middle or distal, respectively.

The IC50 is the concentration needed to halve the response being measured. Higher therefore signals a need for much substance.

In the case of `C[C@]12CC[C@@H]3c4ccc(O)cc4C[C@@H](CCCCCCCCC[S+]([O-])CCCC(F)(F)C(F)(F)F)[C@H]3[C@@H]1CC[C@@H]2O` (stereo partly shown), the “estrogenic activity (agonistic effect)” value with estrogen receptor is “without agonistic effect”.

Molecule `CC1(c2ccc(O)cc2)CCc2cc(O)ccc2C1CCCCCCCCC[S+]([O-])CCCC(F)(F)C(F)(F)F` (stereo not shown) [ZM189154] registered a 50% inhibitory concentration (IC50) in the experiment with MCF-7 cells of 77 nM. In experiment [1], the “Inhibition (%) of increase of uterine weight” value was determined as 73.8%. For the same molecule, the “Inhibition (%) of increase of uterine weight” value in experiment [2] was determined as 41.7%. Besides, in the experiment on mouse femur, the “whole BMD” value was determined as 34.57 ± 1.40 mg/cm^2, the “proximal BMD” value amounted to 34.19 ± 2.19 mg/cm^2 and the “distal BMD” value turned out to be 32.80 ± 1.30 mg/cm^2. In the experiment on mouse femur (vs control), the “decrease of BMD at distal femur” value amounted to 13.3%, the “decrease of BMD at proximal femur” value is 4.9% and the “decrease of BMD at whole femur” value stood at 3.0%.

On to `C[C@@]1(c2ccc(O)cc2)COc2cc(O)ccc2[C@@H]1CCCCCCCCC[S+]([O-])CCCC(F)(F)C(F)(F)F` (mixture of isomers) [Example 7, (3RS,4RS)-7-hydroxy-3-(4-hydroxyphenyl)-3-methyl-4-[9-(4,4,5,5,5-pentafluoropentylsulfinyl)nonyl]-2,3-dihydro-4H-benzopyran], for which, in the experiment on MCF-7 cells, the IC50 is 54.8 nM. Moreover, in experiment [1], the “Inhibition (%) of increase of uterine weight” value is reported as 87.0% and the “inhibition of increase of uterine weight compared to ZM189154” value (“inhibition of increase of uterine weight” below) is reported as “rather superior to that of ZM189154”. In experiment [2], the “Inhibition (%) of increase of uterine weight” value is recorded as 68.1%. Besides, in the experiment with mouse femur, the “whole BMD” value is on record as 37.23 ± 1.41 mg/cm^2, the “proximal BMD” value is 35.05 ± 2.05 mg/cm^2 and the “distal BMD” value came out at 36.29 ± 1.46 mg/cm^2.

Molecule `C[C@@]1(c2ccc(O)cc2)COc2cc(O)ccc2[C@@H]1CCCCCCCCSCCCC(F)(F)C(F)(F)F` (racemic) [Example 12, (3RS,4RS)-7-hydroxy-3-(4-hydroxyphenyl)-3-methyl-4-[8-(4,4,5,5,5-pentafluoropentylthio)octyl]-2,3-dihydro-4H-benzopyran] came in with a 50% inhibitory concentration (IC50) in the experiment on MCF-7 cells of 524 nM. Further, in experiment [1], the “Inhibition (%) of increase of uterine weight” value was found to be 74.8% and the “inhibition of increase of uterine weight” value is listed as “rather superior to that of ZM189154”.

With `CCCCN(C)C(=O)CCCCCCCCCC[C@@H]1Cc2cc(O)ccc2[C@H]2CC[C@]3(C)[C@@H](O)CC[C@H]3[C@H]12` [7 α--(CH2)10 CONMeBu derivative], the anti-estrogenic activity result in the experiment on estrogen receptor is “exhibit anti-estrogenic activity”.

For `CC/C(=C(\c1ccccc1)c1ccc(OCCN(C)C)cc1)c1ccccc1` [Tamoxifen], in the experiment with estrogen receptor, the “estrogenic activity (agonistic effect)” value is recorded as “exhibits estrogenic activity in some organs”.

In turn, `C[C@@]1(c2ccc(O)cc2)COc2cc(O)ccc2[C@@H]1CCCCCCCCC[S+]([O-])CCN1CCCCC1` (mixture of isomers) [Example 46, (3RS,4RS)-7-hydroxy-3-(4-hydroxyphenyl)-3-methyl-4-[9-((2-piperidinoethyl)sulfinyl)nonyl]-2,3-dihydro-4H-benzopyran] returned an IC50 in the experiment with MCF-7 cells of 33 nM. In experiment [1], the “Inhibition (%) of increase of uterine weight” value was 16.7% and the “inhibition of increase of uterine weight” value is given as “rather superior to that of ZM189154”.

As for `C[C@@]1(c2ccc(O)cc2)COc2cc(O)ccc2[C@@H]1CCCCCCCCCSCCCC(F)(F)C(F)(F)F` (racemic) [Example 6, (3RS,4RS)-7-hydroxy-3-(4-hydroxyphenyl)-3-methyl-4-[9-(4,4,5,5,5-pentafluoropentylthio)nonyl]-2,3-dihydro-4H-benzopyran], in the experiment on MCF-7 cells, the IC50 amounted to 277 nM. Further, in experiment [1], the “Inhibition (%) of increase of uterine weight” value is 83.1% and the “inhibition of increase of uterine weight” value is “rather superior to that of ZM189154”.

The values are drawn from patent publication US6153768A, “Benzopyran derivatives” (C & C Research Laboratories, priority 1996, dated 2000).
